# Entries after “also recorded” stand apart in the source; their conditions may differ.
# Columns and labels:
# [1] = molecular target: T1, hCBS (GST-tagged CBS-413) (Homo sapiens, UniProt P35520); assay: surface plasmon resonance (BIAcore T200); format: binding; details: 0.097–12.5 µM injected over hCBS-coated chip; read-out: KD (SPR)
# T1 construct: hCBS-413 (a C-terminal truncated hCBS 1–413); made in house; host or cells: E. coli BL21
# Description: Surface Plasmon Resonance assays (SPR) with a BIAcore T200 (GE Healthcare, Uppsala, Sweden) were used to observe the direct interaction between inhibitors and hCBS. The SPR assay was performed in running buffer (1× PBS with 0.05% P20) and the purified GST-tagged CBS-413 (500 μg/mL) was immobilized onto a flow cell of a CM5 sensor chip using a GST antibody coupling kit in running buffer. The KD values were determined with the Biacore evaluation 3.1 software.
# Figure S2. The mode of action of CH004 in inhibiting hCBS. […] After incubation with DMSO or CH004 at 10 μM for 40 min, hCBS (20 μM) was diluted 200-fold and the activity was measured according to the standard assay protocol (Materials and Methods). The data are presented as percentages of control (CTR; DMSO, 100%) and shown as means ± SDs (n = 5). The effects of 0.05 and 10 μM CH004 on hCBS (100 nM) without pre-incubation were defined as positive control (PC) and negative control (NC), respectively. (B) Inhibition of hCBS by CH004 as a function of PLP concentration with Cys (20 mM) together with Hcys (10 mM) as substrates (non-competitive inhibition constant αKi=15.2 ± 4.9 μM). […] The αKi or αKi’ values were calculated by using the non-linear fitting method for enzyme kinetics in GraphPad Prism 5. […] Dissociation constants for CH004 (KD) were calculated by using Biacore evaluation software (Materials and Methods).
# [2] = system: H22 mouse liver tumor cells in ICR mice; details: 10 mg/kg/day i.v.
# Description: Fig. 7 CH004 suppresses tumor growth in vivo. a–c CH004 reduces the growth rate of tumors in liver tumor xenograft mice model. Mice bearing liver tumor xenografts were treated with CH004 (10 mg/kg/d), cyclophophamide (CTX, 20 mg/kg/d) or PBS (Vehicle) for 21 days. The tumor volumes were measured every two days during day 6 to day 22 and the data was presented in a (n = 8). […] Mice body weight was measured along with the measurement of tumor volume (n = 8). Means ± SDS. Statistical analyses were performed on the raw data by one-way (c) or two-way ANOVA (a) with Bonferroni post-tests. The significance of the CH004-treated group compared to Vehicle was indicated with $ (a), whereas the comparison of the CTX group to Vehicle was with # (a). $, # or ***p < 0.001
# The in vivo effect of CH004 on tumor growth was evaluated in a xenograft mice model of liver cancer. The experiment was independently performed by Jiangsu KeyGEN BioTECH Co. LTD (Jiangsu, China) and followed the standard procedures that were established and approved by the local Animal Care and Use Committee. Briefly, H22 mouse liver tumor cells were intraperitoneal injected into female ICR mice (SLAC Laboratory Animal Co. Ltd, Shanghai, China). 8 days later, mice with distended abdomen were killed, and the ascites was collected, washed and resuspended with PBS. 0.1 ml cell suspension with a density of 1 × 10^7/ml was subcutaneously injected into the right dorsum of ICR female mice (~20 g). The mice bearing H22 tumor cells were then randomized into groups (n = 8) on the following day after the implantation. Then, the mice were injected via a tail vein (i.v.) with PBS, CH004 (10 mg/kg) or cyclophosphamide (CTX, a known anticancer drug; 20 mg/kg) once per day and for 21 days. Tumor sizes were measured every 2 days starting from the day 6 using a caliper, and tumor volume was calculated using the formula V = length × width^2 × π / 6. The body weights of mice were recorded under the same conditions. The mice were sacrificed on day 22, and the tumors were taken out and weighted.
# T1 sequence (P35520 1-413): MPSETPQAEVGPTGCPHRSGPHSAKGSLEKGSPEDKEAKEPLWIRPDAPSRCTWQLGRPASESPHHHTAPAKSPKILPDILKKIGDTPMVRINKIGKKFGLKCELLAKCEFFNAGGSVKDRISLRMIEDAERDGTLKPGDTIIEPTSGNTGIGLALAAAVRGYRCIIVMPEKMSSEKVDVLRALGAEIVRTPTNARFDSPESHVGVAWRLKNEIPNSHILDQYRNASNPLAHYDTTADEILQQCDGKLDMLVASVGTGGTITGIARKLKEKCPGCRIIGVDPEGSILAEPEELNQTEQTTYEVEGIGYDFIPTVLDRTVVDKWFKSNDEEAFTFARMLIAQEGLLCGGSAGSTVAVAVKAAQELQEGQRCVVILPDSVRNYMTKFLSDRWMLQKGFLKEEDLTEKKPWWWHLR
smiles,measurement,setting,value
"Cn1nc(Cc2ccccc2)nc2c(=O)n(C)c(=O)nc1-2 [CH004, 3-benzyl-1,6-dimethylpyrimido[5,4-e][1,2,4]triazine-5,7(1H,6H)-dione]",Kd,[1],600 ± 300 nM
same,reduction of tumor volume or weight,[2]; 21-day treatment,more than half
same,effect on total body weight,[2]; 21 days,did not substantially affect; also recorded: hardly affects
same,growth rate of tumor,"[2]; since day 12 of treatment, p < 0.001",significantly reduced

# From publication PMC6158189, “A pharmacological probe identifies cystathionine β-synthase as a new negative regulator for ferroptosis” (Cell Death & Disease, 2018)
